“Also recorded” adds a separate entry of the source. Where two headings read alike, the source gives them in different places.
Key:
C4-2B = assay: Cytotoxic activity test (MTT) on C4-2B prostate cancer cells; assay type: cell-based, human; details: C4-2B cells
Procedure: (§1) All prostate cancer cells were cultured with a RPMI-1640 medium containing 10% calf serum, 100 units of penicillin per milliliter and 100 µg/mL of streptomycin in a constant temperature incubator containing 5% carbon dioxide at a saturated humidity of 37° C.
(§2) Cells in the logarithmic phase of growth were taken and cultured in 96-well plates for 24 hours (5×10^3 cells/well), then treated with different concentrations of the compounds to be tested, and incubated by MTT method for 4 hours. The supernatant was removed by centrifugation, the MTT crystals were dissolved by adding DMSO, and the absorbance value was measured by an enzyme-linked immunosorbent assay at a wavelength of 570 nm. The cytotoxic activity of the compounds to be tested on cancer cells was expressed as IC50.

C4-2B/ENZR = assay: Cytotoxic activity test (MTT) on C4-2B/ENZR prostate cancer cells; assay type: cell-based, human; details: C4-2B/ENZR cells
Procedure: as §1, §2

RWPE-1 = assay: Cytotoxic activity test (MTT) on normal human prostate cell RWPE-1; assay type: cell-based
Procedure: as §1, §2

Vcap-CRPC = assay: Cytotoxic activity test (MTT) on Vcap-CRPC prostate cancer cells; assay type: cell-based, human; details: Vcap-CRPC cells, MTT, read-out: Prostate cancer cells IC50 Vcap-CRPC
Procedure: as §1, §2

22RV1 = assay: Cytotoxic activity test (MTT) on 22RV1 prostate cancer cells; assay type: cell-based, human; details: 22RV1 cells, MTT, read-out: Prostate cancer cells IC50 22RV1
Procedure: as §1, §2

LNcap = assay: Cytotoxic activity test (MTT) on LNcap prostate cancer cells; assay type: cell-based, human; details: LNcap cells, MTT, read-out: Prostate cancer cells IC50 LNcap
Procedure: as §1, §2

prostate cancer cells = assay: Inhibitory activity on a variety of prostate cancer cells (Table 1); assay type: cell-based, human; details: structure-activity statements on Table 1
Procedure: as §1, §2

[1] = normal human prostate cell RWPE-1, MTT, read-out: Normal cells RWPE-1 (IC50)
[2] = Homo sapiens, RWPE-1, read-out: Normal cells RWPE-1 (IC50)

Row | Compound | IC50 (RWPE-1; [1]) [nM] | IC50 (22RV1) [nM] | IC50 (C4-2B) [nM] | IC50 (C4-2B/ENZR) [nM] | also measured
1 | COc1cccc2c1C(=O)c1c(O)c3c(c(O)c1C2=O)C[C@@](O)(C(=O)CO)C[C@@H]3O[C@H]1C[C@H](N)[C@H](O)[C@H](C)O1 [DOX, doxorubicin, reference compound] | 33.3 | – | – | – | IC50 (C4-2B; Homo sapiens): 1.04 nM; IC50 (C4-2B/ENZR; Homo sapiens): 2.87 nM; IC50 (Vcap-CRPC; Homo sapiens): 12.4 nM; IC50 (22RV1; Homo sapiens): 5.99 nM
2 | C=C(C)[C@@]12OC3(c4ccccc4)O[C@@H]1[C@@H]1[C@@H]4O[C@]4(CO)[C@@H](O)[C@]4(O)C(=O)C(C)=C[C@H]4[C@@]1(O3)[C@H](C)[C@H]2OC(=O)CCC [YH-1] | 43500 | 5.74 | – | – | –
3 | C=C(C)[C@@]12OC3(c4ccccc4)O[C@@H]1[C@@H]1[C@@H]4O[C@]4(CO)[C@@H](O)[C@]4(O)C(=O)C(C)=C[C@H]4[C@@]1(O3)[C@H](C)[C@H]2OC(=O)C(C)C [YH-2] | 40300 | 26.5 | – | – | –
4 | C=C(C)[C@@]12OC3(c4ccccc4)O[C@@H]1[C@@H]1[C@@H]4O[C@]4(CO)[C@@H](O)[C@]4(O)C(=O)C(C)=C[C@H]4[C@@]1(O3)[C@H](C)[C@H]2OC(=O)CC [YH-3] | 57200 | 434 | 8.95 | – | IC50 (LNcap): 3.77 nM; IC50 (Vcap-CRPC): 1.74 nM
5 | C=C(C)[C@@]12OC3(c4ccccc4)O[C@@H]1[C@@H]1[C@@H]4O[C@]4(CO)[C@@H](O)[C@]4(O)C(=O)C(C)=C[C@H]4[C@@]1(O3)[C@H](C)[C@H]2OC(C)=O [YH-6] | 44200 | – | – | – | IC50 (C4-2B; Homo sapiens): 0.367 nM; IC50 (LNcap; Homo sapiens): 3.89 nM; IC50 (C4-2B/ENZR; Homo sapiens): 2.34 nM; IC50 (Vcap-CRPC; Homo sapiens): 21.2 nM; IC50 (22RV1; Homo sapiens): 52.5 nM
6 | C=C(C)[C@@]12OC3(c4ccccc4)O[C@@H]1[C@@H]1[C@@H]4O[C@]4(COC(=O)c4ccccc4)[C@@H](O)[C@]4(O)C(=O)C(C)=C[C@H]4[C@@]1(O3)[C@H](C)[C@H]2OC(C)=O [YH-9] | – | – | – | – | inhibitory activity on prostate cancer cells (in words) (prostate cancer cells): significant decrease in activity; IC50 (C4-2B; Homo sapiens): 380 nM; IC50 (C4-2B/ENZR; Homo sapiens): 1460 nM
7 | C=C(C)[C@@]12OC3(c4ccccc4)O[C@@H]1[C@@H]1[C@@H]4O[C@]4(CO)[C@@H](O)[C@]4(O)C(=O)C(C)=C[C@H]4[C@@]1(O3)[C@H](C)[C@H]2OC(=O)c1ccccc1 [YH-11] | 13400 | – | – | – | inhibitory activity on prostate cancer cells (in words) (prostate cancer cells): most prominent
8 | C=C(C)[C@@]12OC3(c4ccccc4)O[C@@H]1[C@@H]1[C@@H]4O[C@]4(COC(C)=O)[C@@H](OC(C)=O)[C@]4(O)C(=O)C(C)=C[C@H]4[C@@]1(O3)[C@H](C)[C@H]2OC(=O)c1ccccc1 [YH-12] | – | – | – | – | inhibitory activity on prostate cancer cells (in words) (prostate cancer cells): significant decrease in activity; IC50 (C4-2B; Homo sapiens): 557 nM; IC50 (C4-2B/ENZR; Homo sapiens): 1900 nM
9 | C=C(C)[C@@]12OC3(c4ccccc4)O[C@@H]1[C@@H]1[C@@H]4O[C@]4(COC(C)=O)[C@@H](O)[C@]4(O)C(=O)C(C)=C[C@H]4[C@@]1(O3)[C@H](C)[C@H]2OC(=O)c1ccccc1 [YH-13] | 35700 | – | – | – | IC50 (LNcap; Homo sapiens): 4.53 nM; IC50 (C4-2B/ENZR; Homo sapiens): 6.79 nM; IC50 (Vcap-CRPC; Homo sapiens): 67.2 nM; IC50 (22RV1; Homo sapiens): 83.2 nM
10 | C=C(C)[C@@]12OC3(/C=C/C=C/CCCCC)O[C@@H]1[C@@H]1[C@@H]4O[C@]4(COC(C)=O)[C@@H](O)[C@]4(O)C(=O)C(C)=C[C@H]4[C@@]1(O3)[C@H](C)[C@H]2OC(=O)c1ccccc1 [YH-19] | – | – | 64.4 | 136 | inhibitory activity on prostate cancer cells (in words) (prostate cancer cells): significant decrease in activity
11 | C=C(C)[C@@]12OC3(/C=C/C=C/CCCCC)O[C@@H]1[C@@H]1[C@@H]4O[C@]4(CO)[C@@H](O)[C@]4(O)C(=O)C(C)=C[C@H]4[C@@]1(O3)[C@H](C)[C@H]2OC(C)=O [YH-22] | – | – | – | – | inhibitory activity on prostate cancer cells (in words) (prostate cancer cells): most prominent; also recorded: more cytotoxic; IC50 (RWPE-1; [2]): 5890 nM
12 | C=C(C)[C@@]12OC3(/C=C/C=C/CCCCC)O[C@@H]1[C@@H]1[C@@H]4O[C@]4(COC(C)=O)[C@@H](O)[C@]4(O)C(=O)C(C)=C[C@H]4[C@@]1(O3)[C@H](C)[C@H]2OC(C)=O [YH-24] | 21900 | 45.8 | – | 67.3 | IC50 (LNcap): 48.2 nM; IC50 (Vcap-CRPC): 76.2 nM
13 | C=C(C)C12OC3(c4ccccc4)OC1C1C4OC4(CO)C(O)C4(O)C(=O)C(C)CC4C1(O3)C(C)C2OC(C)=O (centres unmarked) [YH-35] | 42900 | 144 | 0.426 | 1.92 | IC50 (LNcap): 4.82 nM; IC50 (Vcap-CRPC): 64.2 nM
14 | C=C(C)C12OC3(c4ccccc4)OC1C1C4OC4(CO)C(O)C4(O)C(=O)C(C)CC4C1(O3)C(C)C2OC(=O)c1ccccc1 (centres unmarked) [YH-36] | 14600 | 42.5 | – | – | –
15 | CCCCCCCCCC12O[C@@H]3[C@@H]4[C@@H]5O[C@]5(CO)[C@@H](O)[C@]5(O)C(=O)C(C)=C[C@H]5[C@@]4(O1)[C@H](C)[C@@H](OC(C)=O)[C@]3(C(C)C)O2 [YH-37] | 10300 | – | – | – | –
16 | CCCCCCCCCC12O[C@@H]3[C@@H]4[C@@H]5O[C@]5(CO)[C@@H](O)[C@]5(O)C(=O)[C@@H](C)C[C@H]5[C@@]4(O1)[C@H](C)[C@@H](OC(C)=O)[C@]3(C(C)C)O2 [YH-38] | 20600 | – | – | – | IC50 (22RV1; Homo sapiens): 5.42 nM
17 | CC(C)[C@@]12OC3(c4ccccc4)O[C@@H]1[C@@H]1[C@@H]4O[C@]4(CO)[C@@H](O)[C@]4(O)C(=O)[C@@H](C)C[C@H]4[C@@]1(O3)[C@H](C)[C@H]2OC(=O)c1ccccc1 [YH-39] | 18500 | – | – | – | IC50 (22RV1; Homo sapiens): 6.73 nM
18 | CC1=C[C@@H]2[C@@](O)(C1=O)[C@H](O)[C@@]1(CO)O[C@H]1[C@H]1[C@H]3OC4(c5ccccc5)O[C@@]3(C(C)C)[C@H](OC(=O)c3ccccc3)[C@@H](C)[C@@]12O4 [YH-40] | 20300 | – | – | – | –
19 | C=C(C)[C@@]12OC3(C)O[C@@H]1[C@@H]1C=C(CO)C[C@]4(O)C(=O)C(C)=C[C@H]4[C@@]1(O3)[C@H](C)[C@H]2OC(=O)c1ccccc1 [YH-44] | 17400 | 4650 | 193 | 641 | IC50 (LNcap): 74.8 nM; IC50 (Vcap-CRPC): 306 nM
20 | C=C(C)[C@@]12OC3(c4ccccc4)O[C@@H]1[C@@H]1[C@@H](Br)[C@@](O)(CO)[C@@H](O)[C@]4(O)C(=O)C(C)=C[C@H]4[C@@]1(O3)[C@H](C)[C@H]2OC(=O)c1ccccc1 [YH-53] | – | – | – | – | IC50 (RWPE-1; [2]): 56300 nM
21 | C=C(C)C1(O)C(OC(=O)c2ccccc2)C(C)C2(O)C(C(O)C(O)(CO)C(O)C3(O)C(=O)C(C)=CC32)C1OC(=O)c1ccccc1 (centres unmarked) [YH-56] | 35100 | 47100 | 4470 | 2690 | IC50 (LNcap): 13100 nM; IC50 (Vcap-CRPC): 15400 nM
22 | C=C(C)C1(O)C(O)C2C3OC3(CO)C(O)C3(O)C(=O)C(C)=CC3C2(O)C(C)C1OC(=O)c1ccccc1 (centres unmarked) [YH-57] | 41100 | 46700 | 2320 | 1870 | IC50 (LNcap): 4820 nM; IC50 (Vcap-CRPC): 40800 nM
23 | C=C(C)C1(O)C(O)C2C3OC3(CO)C(O)C3(O)C(=O)C(C)=CC3C2(O)C(C)C1OC(C)=O (centres unmarked) [YH-58] | – | – | 33600 | 40200 | –
24 | C=C(C)[C@@]1(O)[C@H](OC(=O)c2ccccc2)[C@@H]2[C@@H]3O[C@]3(CO)[C@@H](O)[C@]3(O)C(=O)C(C)=CC3[C@@]2(O)[C@H](C)[C@H]1OC(=O)c1ccccc1 (some centres unmarked) [YH-60] | 4810 | – | – | – | IC50 (C4-2B; Homo sapiens): 49.4 nM; IC50 (LNcap; Homo sapiens): 2.85 nM; IC50 (C4-2B/ENZR; Homo sapiens): 73.9 nM; IC50 (Vcap-CRPC; Homo sapiens): 911 nM; IC50 (22RV1; Homo sapiens): 3890 nM
25 | C=C(C)C1(O)C(O)C(C)C2(O)C(C3OC3(CO)C(O)C3(O)C(=O)C(C)=CC32)C1OC(=O)C=CC=CCCCCC (centres unmarked) [YH-61] | – | – | 189 | 543 | –

From patent US12686686B2 (priority 2020, dated 2026)
